Source: patent US20020143013A1, “Thioxazinoquinolones as antiviral agents” (priority 2001, published 2002)

Target: T1, HCMV polymerase (Human cytomegalovirus, UniProt P08546)
T1 construct: made in house; host or cells: recombinant baculovirus-infected SF-9 cells
Assay: HCMV polymerase assay (modified scintillation proximity assay)
Type: biochemical
Conditions: modified SPA assay; compounds diluted in 100% DMSO; 4.5 mM DTT in polymerase buffer
Method: The HCMV polymerase assay is performed using a scintillation proximity assay (SPA) as described in several references, such as N. D. Cook, et al., Pharmaceutical Manufacturing International, pages 49-53 (1992); K. Takeuchi, Laboratory Practice, September issue (1992); U.S. Pat. No. 4,568,649 (1986); which are incorporated by reference herein. Reactions are performed in 96-well plates. The assay is conducted in 100 μl volume with 5.4 mM HEPES (pH 7.5), 11.7 mM KCl, 4.5 mM MgCl2, 0.36 mg/ml BSA, and 90 nM ^3H-dTTP. Assays are run with and without CHAPS, (3-[(3-Cholamidopropyl)-dimethylammonio]-1-propane-sulfonate) at a final concentration of 2 mM. HCMV polymerase is diluted in enzyme dilution buffer containing 50% glycerol, 250 mM NaCl, 10 mM HEPES (pH 7.5), 100 μg/ml BSA, and 0.01% sodium azide. The HCMV polymerase, which is expressed in recombinant baculovirus-infected SF-9 cells and purified according to literature procedures, is added at 10% (or 10 μl) of the final reaction volume, i.e., 100 μl. Compounds are diluted in 50% DMSO and 10 μl are added to each well. Control wells contain an equivalent concentration of DMSO. […] Plates are incubated 10 min. at 37 C., then equilibrated to room temperature, and counted on a Packard Topcount. Linear regressions are performed and IC50's are calculated using computer software. […]

T1 sequence (P08546 whole entry): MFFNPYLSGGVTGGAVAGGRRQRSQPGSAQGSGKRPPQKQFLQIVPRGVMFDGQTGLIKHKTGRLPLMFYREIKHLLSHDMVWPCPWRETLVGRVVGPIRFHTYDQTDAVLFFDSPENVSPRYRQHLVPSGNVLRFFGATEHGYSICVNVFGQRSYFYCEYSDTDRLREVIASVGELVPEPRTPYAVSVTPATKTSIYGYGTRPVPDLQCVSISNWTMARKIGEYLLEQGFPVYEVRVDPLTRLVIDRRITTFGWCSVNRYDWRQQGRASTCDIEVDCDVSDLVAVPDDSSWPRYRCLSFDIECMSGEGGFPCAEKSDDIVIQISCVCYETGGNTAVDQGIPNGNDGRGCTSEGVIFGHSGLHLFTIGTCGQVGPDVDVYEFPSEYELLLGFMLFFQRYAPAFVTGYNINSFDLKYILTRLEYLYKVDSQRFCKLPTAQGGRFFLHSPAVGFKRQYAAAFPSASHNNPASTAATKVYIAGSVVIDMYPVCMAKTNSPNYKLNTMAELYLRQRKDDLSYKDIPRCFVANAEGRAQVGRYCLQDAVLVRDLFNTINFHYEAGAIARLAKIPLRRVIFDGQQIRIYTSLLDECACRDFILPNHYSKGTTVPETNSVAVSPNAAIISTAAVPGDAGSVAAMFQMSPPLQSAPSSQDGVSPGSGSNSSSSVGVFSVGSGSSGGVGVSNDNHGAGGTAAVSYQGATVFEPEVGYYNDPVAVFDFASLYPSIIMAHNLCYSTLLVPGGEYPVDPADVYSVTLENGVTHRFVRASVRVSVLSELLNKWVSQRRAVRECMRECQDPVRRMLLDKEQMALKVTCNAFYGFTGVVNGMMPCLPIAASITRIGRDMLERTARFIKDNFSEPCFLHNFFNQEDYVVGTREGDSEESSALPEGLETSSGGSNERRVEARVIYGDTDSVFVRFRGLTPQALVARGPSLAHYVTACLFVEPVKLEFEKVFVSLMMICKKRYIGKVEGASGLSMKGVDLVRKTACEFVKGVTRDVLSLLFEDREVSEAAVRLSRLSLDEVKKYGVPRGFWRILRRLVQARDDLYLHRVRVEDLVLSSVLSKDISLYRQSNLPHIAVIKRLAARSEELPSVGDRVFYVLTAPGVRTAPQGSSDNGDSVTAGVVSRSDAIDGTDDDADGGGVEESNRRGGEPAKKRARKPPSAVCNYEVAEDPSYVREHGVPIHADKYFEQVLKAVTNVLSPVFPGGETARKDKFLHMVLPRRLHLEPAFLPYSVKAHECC

How did the IC50 turn out when O=C(NCc1ccc(Cl)cc1)c1cn2c3c(cc(CN4CCOCC4)cc3c1=S)OCC2 [Example 1, N-(4-chlorobenzyl)-9-(4-morpholinylmethyl)-7-thioxo-2,3-dihydro-7H-[1,4]oxazino[2,3,4-ij]quinoline-6-carboxamide] was run?
The IC50 was 0.06 µM.
